Experiment in all cases: NCI tumour cell line growth inhibition, 48 h
The subject of assay [1] is UO-31 renal.
Assay [2] deals with MALME-3M melanoma.
The test system of assay [3] is HS 578T breast.
In assay [4] the test system is CCRF-CEM leukemia.
For assay [5], the system named is OVCAR-8 ovarian.
For assay [6], the system named is PC-3 prostate.
Assay [7] has as its system MDA-MB-231 breast.
For assay [8], the system named is T-47D breast.
Assay [9] relates to MDA-MB-435.
For assay [10], the system named is HCT-15 colon.

Values joined by “and” are separate entries in the source; they are usually repeats but may differ in a detail not shown here. Equal values may be shown once.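 Dose response: 5 concentrations. Exposure: 48 h. Format: 96-well plates. Endpoint: linear interpolation; highest concentration if not reached. Here, GI50 denotes the concentration required for 50% inhibition of growth. The concentration for full growth arrest is given as TGI.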

`COc1ccc(-c2nc(-c3cc(OC)cc(OC)c3)[nH]c2-c2ccc(OC)cc2)cc1`: the GI50 in assay [1] was 5.72 µM; in [2], 8.31 µM; in [3], 8.33 µM; in assay [4], 3.93 µM; in assay [5], 9.77 µM; in assay [6], 4 µM. Also, the GI50 is 6.82 µM in assay [7], 2.36 µM in assay [8], 5.98 µM in assay [9] and 5.04 µM in assay [10]. The TGI in assay [1], in [2], in [3], in [4], in assay [5] and in assay [6] was over 100 µM throughout. Moreover, the TGI in assay [7] was over 100 µM; in assay [8] it was 9.25 µM; in assay [9] it was over 100 µM; in assay [10], over 100 µM.

Turning to `Cn1c(=O)c2c(nc(C(=N)SCC(=O)O)n2C)n(C)c1=O`, the TGI in assay [1] is over 100 µM; in assay [2], over 100 µM; in assay [3], over 100 µM; in assay [4], 35.8 µM; in [5], over 100 µM; in [6], over 100 µM. The TGI in assay [7], in assay [8], in assay [9] and in assay [10] was over 100 µM each time.

Take `O=C1Nc2ccccc2/C1=C1\CCc2cc(O)ccc21`: the GI50 in [1] was 1.67 µM; in assay [2], 8.11 µM; in assay [3], 7.12 µM; in assay [4], 7.19 µM; in assay [5] it was 10.4 µM; in assay [6], 12.4 µM. Moreover, the GI50 in assay [7] was 7.22 µM; in assay [8], 6.35 µM; in assay [9] it was 2.24 µM; in assay [10], 5.26 µM. In addition, the TGI was over 23.9 µM in assay [1]; over 25 µM in assay [2]; over 25 µM in assay [3]; over 25 µM in assay [4]; over 25 µM in [5]; over 25 µM in assay [6]. For the same compound, the TGI in [7], in assay [8], in [9] and in assay [10] was over 25 µM each time.

Turning to `COc1ccc(-c2ccc3c(N4CCOC[C@@H]4C)nc(N4CCOC[C@@H]4C)nc3n2)cc1CO`, the GI50 in assay [1] was 0.003 µM and < 0.01 µM; in [2], 0.00289 µM and < 0.01 µM; in assay [3], 0.0018 µM and 0.0131 µM; in assay [4] it was 0.0102 µM and 0.059 µM; in assay [5], 0.00759 µM and 0.0351 µM; in assay [6] it was 0.00478 µM and < 0.0109 µM. The GI50 in assay [7] is 0.00595 µM and 0.0364 µM; in assay [8] it was 0.00158 µM and < 0.01 µM; in [9], 0.00531 µM and 0.0227 µM; in assay [10], 0.00526 µM and 0.0301 µM. In addition, the TGI in assay [1] was 0.0758 µM and 0.0806 µM; in [2], 0.0203 µM and 0.0392 µM; in [3], 0.0145 µM and 0.0679 µM; in assay [4], over 100 µM; in [5], 3.39 µM; in [6], over 100 µM. Further, the TGI in assay [7] is 13.8 µM; in assay [8] it was 0.00844 µM and 0.0544 µM; in [9], 0.0557 µM and 0.263 µM; in assay [10], over 100 µM.

With `c1ccc2c(c1)[nH]c1c2cc[n+]2cc3c(cc12)CCCC3`, the GI50 is 14.4 µM in assay [1]; 1.65 µM in assay [2]; 2.63 µM in assay [3]; 2.76 µM in [4]; 1.95 µM in [5]; 2.97 µM in [7]. Besides, the figures for the GI50 in [8] and in assay [10] were 2.47 µM and 23.3 µM, respectively. Also, the TGI in assay [1] is 30.7 µM and 33 µM; in [2], 3.54 µM; in [3], 12.2 µM and > 100 µM; in [4] it was 12.7 µM; in assay [5], 7.57 µM and 11.2 µM; in assay [6], 10.9 µM and 29 µM. For the same compound, the TGI in assay [7] was 10 µM and 12.7 µM; in assay [8] it was 13.6 µM and 22.4 µM; in assay [9], 6.34 µM and 7.54 µM; in [10], > 100 µM and 23.2 µM.

Take `COc1ccc(-c2nccn2-c2ccc(OC)cc2)cc1`: the GI50 was 23.3 µM in [1]; 15.9 µM in [2]; 20.9 µM in [3]; 23.5 µM in assay [4]; 23.9 µM in assay [5]; 24.9 µM in assay [6]. Further, the GI50 in assay [7] was 16.4 µM; in assay [8], 65.4 µM; in [9], 7.53 µM; in [10], 23.1 µM. The TGI was over 82 µM in assay [1]; 50.3 µM in [2]; 74.7 µM in [3]; 76.7 µM in [4]; 67.5 µM in assay [5]; over 100 µM in assay [6]. The TGI was 57.5 µM in assay [7], over 100 µM in [8], 35.1 µM in [9] and over 67.2 µM in [10].

With `CO[C@H]1Nc2c(ccc(C)c2O)C(=O)N2C=C(/C=C/C(N)=O)C[C@@H]12`, the TGI was 0.0451 µM in [1]; 0.0591 µM in [2]; 0.0407 µM in assay [3]; over 50.6 µM in assay [4]; 2.01 µM in assay [5]; 0.656 µM in assay [6]. Moreover, the TGI in assay [7] was 0.0333 µM; in assay [8], over 7.99 µM; in assay [9] it was 0.0293 µM; in assay [10], 0.758 µM.

With `COc1ccc(/C(C)=C(\c2ccc(OCCN3CCCCCC3)cc2)c2ccc(OC(=O)C3CCCCC3)cc2)cc1`, the GI50 in assay [1] is 0.453 µM; in assay [2] it was 0.517 µM; in [3], 0.959 µM; in [4], 0.75 µM; in [5] it was 2.04 µM; in [6] it was 0.541 µM. In addition, the GI50 in assay [7] was 1.05 µM; in [8], 0.405 µM; in assay [9], 1.57 µM; in assay [10], 0.378 µM. In addition, the TGI in [1] is 2.22 µM; in [2] it was 2.14 µM; in assay [3] it was 3.74 µM; in [4] it was 9.39 µM; in assay [5], 5.9 µM; in assay [6], 2.38 µM. Besides, the TGI came to 3 µM in [7], 3.33 µM in assay [8], 3.38 µM in [9] and 1.41 µM in assay [10].
